# Key:
# Format in all cases: binding
# [1] = molecular target: T1, recombinant N-terminal PMS2 (residues 1-365) (Homo sapiens, UniProt P54278); test: Fluorescence Polarisation Assay for PMS2; details: 10 nM N-terminal PMS2, 5 nM probe compound
# T1 construct: recombinant N-terminal PMS2 (residues 1-365)
# T1 sequence (P54278 1-365): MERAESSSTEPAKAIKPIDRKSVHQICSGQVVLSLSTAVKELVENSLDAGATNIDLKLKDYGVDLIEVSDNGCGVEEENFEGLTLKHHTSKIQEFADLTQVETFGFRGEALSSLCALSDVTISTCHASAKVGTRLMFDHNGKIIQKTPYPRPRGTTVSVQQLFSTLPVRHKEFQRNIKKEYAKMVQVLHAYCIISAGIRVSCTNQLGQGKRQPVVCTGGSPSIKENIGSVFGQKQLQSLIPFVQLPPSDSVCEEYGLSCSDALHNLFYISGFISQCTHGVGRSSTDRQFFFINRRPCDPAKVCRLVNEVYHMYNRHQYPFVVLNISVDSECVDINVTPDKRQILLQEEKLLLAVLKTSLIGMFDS
# Procedure: Fluorescence Polarisation Assay for PMS2
# Test compounds, as 10 mM DMSO stocks, were dispensed into a Black Fluotrac 200 384 well medium binding plate (Greiner Bio-One, item number 781076) using a Labcyte Echo acoustic liquid handler. For single point screening, test compounds were added to wells in columns 1-22 whilst DMSO was added to wells in columns 23 and 24 to normalise the plate. For potency determination, serial dilutions of test compounds were added to wells in columns 3-22 and DMSO volume was normalised across the plate. […] 20 μL assay buffer was added to all wells in columns 1 and 24 (column 24 only for single point screening) using a MultiDrop Combi (ThermoFisher). Plates were centrifuged for 1 minute at 250 xg and were incubated at room temperature for 30 minutes prior to the addition of 20 μL of 2×(20 nM) of 5-((5-(4-((2-(2,4-dihydroxy-5-isopropylbenzoyl) isoindolin-5-yl) methyl)piperazin-1-yl) pentyl)carbamoyl)-2-(6-(dimethylamino)-3-(dimethyliminio)-3H-xanthen-9-yl)benzoate (referred to hereinafter as “probe compound”) in assay buffer (prepared from a 100 μM DMSO stock) with a MultiDrop Combi (ThermoFisher). The final concentration of N-terminal PMS2 was 10 nM and the final concentration of probe compound was 5 nM. Compound plates were centrifuged for 1 minute at 250 xg for 1 minute and were incubated at room temperature for 1 hour before being read on a PheraStar FSX (fitted with 384-well aperture spoon and 540 590 590 FP optic module). The gain and focus were adjusted before each plate was read so that the polarisation of a no enzyme control (column 24) was equal to 35 mP. Data were normalised against the no inhibitor controls (column 23) and no enzyme controls (column 24).
# [2] = molecular target: T2, recombinant N-terminal MLH1 (residues 15-340) (Homo sapiens, UniProt P40692); test: Fluorescence Polarisation Assay for MLH1; details: 100 nM N-terminal MLH1, 5 nM probe compound
# T2 construct: recombinant N-terminal MLH1 (residues 15-340)
# T2 sequence (P40692 15-340): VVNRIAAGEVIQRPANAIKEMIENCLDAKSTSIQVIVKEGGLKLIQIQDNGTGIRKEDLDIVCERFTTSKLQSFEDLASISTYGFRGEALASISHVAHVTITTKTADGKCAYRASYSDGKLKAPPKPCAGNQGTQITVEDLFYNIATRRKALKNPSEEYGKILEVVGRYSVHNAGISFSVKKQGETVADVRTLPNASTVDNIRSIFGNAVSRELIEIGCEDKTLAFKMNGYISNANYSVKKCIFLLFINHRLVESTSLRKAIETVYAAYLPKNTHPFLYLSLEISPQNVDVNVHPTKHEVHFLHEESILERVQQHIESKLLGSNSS
# How it was run: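 Fluorescence polarisation displacement: 100 nM MLH1 (15-340) preincubated 30 min at room temperature with compound, then 5 nM rhodamine-labelled probe added and read immediately. Buffer 25 mM HEPES pH 7.5, 250 mM NaCl, 10 mM MgCl2, 0.01% Triton X-100, 5 mM DTT; normalised to no-inhibitor and no-enzyme controls.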
# [3] = molecular target: T3, recombinant HSP90α (full length with an N-terminal His6-tag) (Homo sapiens, UniProt P07900); test: Fluorescence Polarisation Assay for HSP90; details: 30 nM HSP90α, 5 nM FITC-Geldanymycin
# T3 construct: recombinant HSP90α (full length with an N-terminal His6-tag, BPS Bioscience); His6 (N); purchased BPS Bioscience
# Procedure: Fluorescence Polarisation Assay for HSP90
# Test compounds, solubilised to a concentration of 10 mM in DMSO, were dispensed into a Black Fluotrac 200 384 well medium binding plates (Greiner Bio-One, item number 781076) using a Labcyte Echo acoustic liquid handler. For single point screening, test compounds were added to wells in columns 1-22 whilst for potency determination, serial dilutions of test compounds were added to wells in columns 3-22; in all cases, DMSO volume was normalised across the entire plate. All subsequent liquid handling steps were conducted using a Multidrop Combi (Thermo Scientific) or Matrix electronic pipettors (Thermo Scientific).
# 20 μL assay buffer was added to all wells in columns 1 and 24 (column 24 only for single point screening). Plates were centrifuged for 1 minute at 250 xg and were incubated at room temperature for 30 minutes prior to the addition of 20 μL of 2×(10 nM) of FITC-Geldanymycin in assay buffer (Abcam ab141589, prepared from a 100 μM DMSO stock). […]
# Compound plates were centrifuged for 1 minute at 250 xg and were incubated at room temperature for 3 hours before being read on a PheraStar FSX (fitted with 384-well aperture spoon and 485 520 520 FP optic module). The gain and focus were adjusted before each plate was read so that the polarisation of a no enzyme control (column 24) was equal to 35 mP. […]
Compound,IC50 [1] [nM],IC50 [2] [nM],IC50 [3] [nM]
"O=C(c1c(O)cc(C(F)F)cc1OCc1ccccc1)N1Cc2ccc(OC3CCNCC3)cc2C1 [Example 26, (2-(Benzyloxy)-4-(difluoromethyl)-6-hydroxyphenyl)(5-(piperidin-4-yloxy)isoindolin-2-yl)methanone]",1000 to 10000,< 100,–
"CN(C)CCOc1ccc2c(c1)CCN(C(=O)c1c(O)cc(C(F)F)cc1OCc1ccccc1)C2 [Example 4.41, (2-(Benzyloxy)-4-s(difluoromethyl)-6-hydroxyphenyl)(6-(2-(dimethylamino)ethoxy)-3,4-dihydroisoquinolin-2(1H)-yl)methanone]",100 to 1000,100 to 1000,–
"CN1CCC(Oc2ccc3c(c2)CN(C(=O)c2c(O)cc(F)cc2OCc2ccccc2)C3)CC1 [Example 10.25, (2-(Benzyloxy)-4-fluoro-6-hydroxyphenyl) (5-((1-methylpiperidin-4-yl)oxy)isoindolin-2-yl) methadone]",1000 to 10000,100 to 1000,–
"CN1CCC(Oc2ccc3c(c2)CN(C(=O)c2c(O)cc(C(F)F)cc2OCc2ccccc2)C3)CC1 [Example 4.32, (2-(Benzyloxy)-4-(difluoromethyl)-6-hydroxyphenyl)(5-((1-methylpiperidin-4-yl)oxy)isoindolin-2-yl)methanone]",1000 to 10000,< 100,1000 to 10000
"CN1CCC(Oc2ccc3c(c2)CN(C(=O)c2c(O)cc(C(F)F)cc2OCC2CC2)C3)CC1 [Example 4.59, (2-(Cyclopropylmethoxy)-4-(difluoromethyl)-6-hydroxyphenyl)(5-((1-methylpiperidin-4-yl)oxy)isoindolin-2-yl)methanone]",–,100 to 1000,1000 to 10000
"CN1CC[C@H](Oc2ccc3c(c2)CN(C(=O)c2c(O)cc(C(F)F)cc2OCc2ccccc2)C3)C1 [Example 4.56, (S)-(2-(Benzyloxy)-4-(difluoromethyl)-6-hydroxyphenyl)(5-((1-methylpyrrolidin-3-yl)oxy)isoindolin-2-yl)methanone]",1000 to 10000,< 100,–
"CN1CC(Oc2ccc3c(c2)CN(C(=O)c2c(O)cc(C#N)cc2OCc2ccccn2)C3)C1 [Example 10.37, 3-Hydroxy-4-(5-((1-methylazetidin-3-yl)oxy)isoindoline-2-carbonyl)-5-(pyridin-2-ylmethoxy)benzonitrile]",–,1000 to 10000,–

# — patent US20260217687A1 (NeoPhore Limited, priority 2023, published 2026)
